Measurements from PubChem BioAssay (NCI).
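Values below derive from 48-hour exposures of cells grown in 96-well plates, with endpoints linearly interpolated between the two concentrations bracketing the appropriate inhibition level. GI50 is the concentration that inhibits growth by half. TGI: concentration producing complete growth inhibition.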

Assays:
Assay in all cases: DTP human tumour cell line panel, 48 h
[1] = tested on: 786-0 renal
[2] = tested on: A498 renal
[3] = tested on: A549 NSCLC
[4] = tested on: ACHN renal
[5] = tested on: CAKI-1 renal
[6] = tested on: CCRF-CEM leukemia
[7] = tested on: COLO 205 colon
[8] = tested on: DU-145 prostate
[9] = tested on: EKVX NSCLC
[10] = tested on: HCC-2998 colon
[11] = tested on: HCT-116 colon
[12] = tested on: HCT-15 colon
[13] = tested on: HL-60(TB) leukemia
[14] = tested on: HOP-62 NSCLC
[15] = tested on: HOP-92 NSCLC
[16] = tested on: HS 578T breast
[17] = tested on: HT29 colon
[18] = tested on: IGROV1 ovarian
[19] = tested on: K-562 leukemia
[20] = tested on: KM12 colon
[21] = tested on: LOX IMVI melanoma
[22] = tested on: M14 melanoma
[23] = tested on: MALME-3M melanoma
[24] = tested on: MCF7 breast
[25] = tested on: MDA-MB-231 breast
[26] = tested on: MDA-MB-435
[27] = tested on: MOLT-4 leukemia
[28] = tested on: NCI-H226 lung
[29] = tested on: NCI-H23 lung
[30] = tested on: NCI-H460 lung
[31] = tested on: NCI-H522 lung
[32] = tested on: NCI/ADR-RES ovarian
[33] = tested on: OVCAR-3 ovarian
[34] = tested on: OVCAR-4 ovarian
[35] = tested on: OVCAR-5 ovarian
[36] = tested on: PC-3 prostate
[37] = tested on: RPMI-8226 leukemia
[38] = tested on: SF-268 CNS
[39] = tested on: SF-295 CNS
[40] = tested on: SF-539 CNS
[41] = tested on: SK-MEL-2 melanoma
[42] = tested on: SK-MEL-28 melanoma
[43] = tested on: SK-MEL-5 melanoma
[44] = tested on: SK-OV-3 ovarian
[45] = tested on: SN12C renal
[46] = tested on: SNB-19 CNS
[47] = tested on: SNB-75 CNS
[48] = tested on: SR leukemia
[49] = tested on: SW-620 colon
[50] = tested on: T-47D breast
[51] = tested on: TK-10 renal
[52] = tested on: U251 CNS
[53] = tested on: UACC-62 melanoma
[54] = tested on: UO-31 renal

Compound: CSc1ccc(C2=NN(c3ccccc3)C(c3ccc(-c4cc(Cl)c(Cl)cc4Cl)o3)C2)cc1 (stereo not drawn)
- GI50 [1]: > 100 µM
- TGI [1]: > 100 µM
- GI50 [2]: > 100 µM
- TGI [2]: > 100 µM
- GI50 [3]: > 100 µM
- TGI [3]: > 100 µM
- GI50 [4]: > 100 µM
- TGI [4]: > 100 µM
- GI50 [5]: > 100 µM
- TGI [5]: > 100 µM
- GI50 [6]: > 100 µM
- TGI [6]: > 100 µM
- GI50 [7]: > 100 µM
- TGI [7]: > 100 µM
- GI50 [8]: > 100 µM
- TGI [8]: > 100 µM
- GI50 [9]: > 100 µM
- TGI [9]: > 100 µM
- GI50 [10]: > 100 µM
- TGI [10]: > 100 µM
- GI50 [11]: > 100 µM
- TGI [11]: > 100 µM
- GI50 [12]: > 100 µM
- TGI [12]: > 100 µM
- GI50 [13]: > 100 µM
- TGI [13]: > 100 µM
- GI50 [14]: 12.3 µM
- TGI [14]: > 100 µM
- GI50 [15]: 21 µM
- TGI [15]: 52.1 µM
- GI50 [16]: 46.3 µM
- TGI [16]: > 100 µM
- GI50 [17]: > 100 µM
- TGI [17]: > 100 µM
- GI50 [18]: > 100 µM
- TGI [18]: > 100 µM
- GI50 [19]: > 100 µM
- TGI [19]: > 100 µM
- GI50 [20]: > 100 µM
- TGI [20]: > 100 µM
- GI50 [21]: > 100 µM
- TGI [21]: > 100 µM
- GI50 [22]: > 100 µM
- TGI [22]: > 100 µM
- GI50 [23]: > 100 µM
- TGI [23]: > 100 µM
- GI50 [24]: > 100 µM
- TGI [24]: > 100 µM
- GI50 [25]: > 100 µM
- TGI [25]: > 100 µM
- GI50 [26]: > 100 µM
- TGI [26]: > 100 µM
- GI50 [27]: > 100 µM
- TGI [27]: > 100 µM
- GI50 [28]: > 100 µM
- TGI [28]: > 100 µM
- GI50 [29]: > 100 µM
- TGI [29]: > 100 µM
- GI50 [30]: 89.3 µM
- TGI [30]: > 100 µM
- GI50 [31]: > 100 µM
- TGI [31]: > 100 µM
- GI50 [32]: > 100 µM
- TGI [32]: > 100 µM
- GI50 [33]: > 100 µM
- TGI [33]: > 100 µM
- GI50 [34]: > 100 µM
- TGI [34]: > 100 µM
- GI50 [35]: > 100 µM
- TGI [35]: > 100 µM
- GI50 [36]: 63.1 µM
- TGI [36]: > 100 µM
- GI50 [37]: > 100 µM
- TGI [37]: > 100 µM
- GI50 [38]: 87.1 µM
- TGI [38]: > 100 µM
- GI50 [39]: 54.7 µM
- TGI [39]: > 100 µM
- GI50 [40]: 63.2 µM
- TGI [40]: > 100 µM
- GI50 [41]: > 100 µM
- TGI [41]: > 100 µM
- GI50 [42]: > 100 µM
- TGI [42]: > 100 µM
- GI50 [43]: > 100 µM
- TGI [43]: > 100 µM
- GI50 [44]: 35.8 µM
- TGI [44]: > 100 µM
- GI50 [45]: > 100 µM
- TGI [45]: > 100 µM
- GI50 [46]: 64.3 µM
- TGI [46]: > 100 µM
- GI50 [47]: 27.5 µM
- TGI [47]: 85.7 µM
- GI50 [48]: > 100 µM
- TGI [48]: > 100 µM
- GI50 [49]: > 100 µM
- TGI [49]: > 100 µM
- GI50 [50]: > 100 µM
- TGI [50]: > 100 µM
- GI50 [51]: > 100 µM
- TGI [51]: > 100 µM
- GI50 [52]: 89.2 µM
- TGI [52]: > 100 µM
- GI50 [53]: 78.8 µM
- TGI [53]: > 100 µM
- GI50 [54]: > 100 µM
- TGI [54]: > 100 µM
